# According to article PMC5996347, “2-Mercapto-Quinazolinones as Inhibitors of Type II NADH Dehydrogenase and Mycobacterium tuberculosis: Structure–Activity Relationships, Mechanism of Action and Absorption, Distribution, Metabolism, and Excretion Characterization” (ACS Infectious Diseases, 2018):
# “Also recorded” adds a separate entry of the source.
# Experiments:
# Format in all cases: cell-based, Mycobacterium tuberculosis
# nuoG deletion mutant = conditions: results not shown
# [1] = test system: anaerobic nonreplicating MTb cells; experiment: Anaerobic cidal activity on nonreplicating cells
# ΔndhA mutant = test system: ΔndhA mutant
smiles,measurement,setting,value
"O=C(CSc1nc2ccccc2c(=O)[nH]1)NC1CCCCC1 [Compound 1, N-Cyclohexyl-2-((4-oxo-3,4-dihydroquinazolin-2-yl)thio)acetamide]",MIC to nuoG deletion mutant compared with WT,nuoG deletion mutant,indistinguishable from WT cells
same,Anaerobic cidal activity / viability of anaerobic nonreplicating cells,[1],Lack of anaerobic cidal activity; also recorded: did not affect viability
same,Kill of ΔndhA mutant,ΔndhA mutant,~2 log
